Tested on: spider mite (Tetranychus uricae)
Experiment: Effectiveness of pesticide with NovioHelix hydrogel adjuvant: dead percentage of spider mites on paprika plants
Type: in vivo
Conditions: day 5 after treatment; infected paprika plants; applied till run off; Noviohelix 3 mg/mL where used
Protocol: Paprika plants infected with spider mite (Tetranychus uricae) were used as experiment samples. All paprika (±20cm) were artificially infected with spiders 5 days before the experiments. The insecticide Spiromesifen (Spiromesifen, 240 g/l, Oberon) was used to against spiders. Noviohelix (3 mg/mL) was used as an adjuvant. All samples were applied with pesticide until ‘till run off’ (the first droplet of a composition fall off the leave). The effectiveness of Spiromesifen either with or without NovioHelix was determined based on the dead percentage of spiders after treatment. The spiders both in mature and immature phases were counted before and at day 5 after experiment.

Q: With `Cc1cc(C)c(C2=C(OC(=O)CC(C)(C)C)C3(CCCC3)OC2=O)c(C)c1` [Spiromesifen] as the molecule, how does the “% dead (dead percentage of spider)” value read?
A: 84.8%
